Data reported in PubChem BioAssay (NCI).
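Five compound concentrations were applied to cells in 96-well plates for 48 hours; endpoints were derived by simple linear interpolation of the resulting dose-response curve. Abbreviation: GI50, concentration required for 50% inhibition of growth. TGI marks complete inhibition of growth.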

Tests used:
Experiment in all cases: NCI-60 cell line screen, 48 h
MCF7 breast = test system: MCF7 breast
M14 melanoma = test system: M14 melanoma
HOP-92 NSCLC = test system: HOP-92 NSCLC
RPMI-8226 leukemia = test system: RPMI-8226 leukemia
HCT-15 colon = test system: HCT-15 colon
SK-MEL-2 melanoma = test system: SK-MEL-2 melanoma
UACC-257 melanoma = test system: UACC-257 melanoma
BT-549 breast = test system: BT-549 breast
MOLT-4 leukemia = test system: MOLT-4 leukemia
SF-539 CNS = test system: SF-539 CNS
UACC-62 melanoma = test system: UACC-62 melanoma
DU-145 prostate = test system: DU-145 prostate
OVCAR-3 ovarian = test system: OVCAR-3 ovarian
HL-60(TB) leukemia = test system: HL-60(TB) leukemia
HS 578T breast = test system: HS 578T breast
HT29 colon = test system: HT29 colon
SNB-19 CNS = test system: SNB-19 CNS
U251 CNS = test system: U251 CNS
NCI-H226 lung = test system: NCI-H226 lung
IGROV1 ovarian = test system: IGROV1 ovarian
T-47D breast = test system: T-47D breast
KM12 colon = test system: KM12 colon
NCI-H23 lung = test system: NCI-H23 lung
786-0 renal = test system: 786-0 renal
SNB-75 CNS = test system: SNB-75 CNS
SR leukemia = test system: SR leukemia
SK-MEL-28 melanoma = test system: SK-MEL-28 melanoma
PC-3 prostate = test system: PC-3 prostate
SW-620 colon = test system: SW-620 colon
CAKI-1 renal = test system: CAKI-1 renal
LOX IMVI melanoma = test system: LOX IMVI melanoma
HCC-2998 colon = test system: HCC-2998 colon
MALME-3M melanoma = test system: MALME-3M melanoma
NCI-H522 lung = test system: NCI-H522 lung
K-562 leukemia = test system: K-562 leukemia
A549 NSCLC = test system: A549 NSCLC
OVCAR-4 ovarian = test system: OVCAR-4 ovarian
HOP-62 NSCLC = test system: HOP-62 NSCLC
MDA-MB-468 breast = test system: MDA-MB-468 breast
OVCAR-5 ovarian = test system: OVCAR-5 ovarian
MDA-MB-435 = test system: MDA-MB-435
OVCAR-8 ovarian = test system: OVCAR-8 ovarian
RXF 393 renal = test system: RXF 393 renal
SF-295 CNS = test system: SF-295 CNS
UO-31 renal = test system: UO-31 renal
HCT-116 colon = test system: HCT-116 colon
CCRF-CEM leukemia = test system: CCRF-CEM leukemia
A498 renal = test system: A498 renal
SK-OV-3 ovarian = test system: SK-OV-3 ovarian
SK-MEL-5 melanoma = test system: SK-MEL-5 melanoma
ACHN renal = test system: ACHN renal
SN12C renal = test system: SN12C renal
TK-10 renal = test system: TK-10 renal
MDA-MB-231 breast = test system: MDA-MB-231 breast
COLO 205 colon = test system: COLO 205 colon
SF-268 CNS = test system: SF-268 CNS
NCI-H460 lung = test system: NCI-H460 lung

Structure (SMILES): O=C(Nc1ccc(I)cc1F)c1cc(-c2ccc(F)cc2F)ccc1O
- GI50 (MCF7 breast): 2.7 µM
- TGI (MCF7 breast): 11 µM
- GI50 (M14 melanoma): 2.05 µM
- TGI (M14 melanoma): 5.48 µM
- GI50 (HOP-92 NSCLC): 2.42 µM
- TGI (HOP-92 NSCLC): 5.93 µM
- GI50 (RPMI-8226 leukemia): 2.1 µM
- TGI (RPMI-8226 leukemia): 5.67 µM
- GI50 (HCT-15 colon): 3.07 µM
- TGI (HCT-15 colon): 28.8 µM
- GI50 (SK-MEL-2 melanoma): 1.79 µM
- TGI (SK-MEL-2 melanoma): 4.16 µM
- GI50 (UACC-257 melanoma): 2.41 µM
- TGI (UACC-257 melanoma): 7.15 µM
- GI50 (BT-549 breast): 2.36 µM
- TGI (BT-549 breast): 6.08 µM
- GI50 (MOLT-4 leukemia): 2.58 µM
- TGI (MOLT-4 leukemia): 9.32 µM
- GI50 (SF-539 CNS): 3.2 µM
- TGI (SF-539 CNS): 11.6 µM
- GI50 (UACC-62 melanoma): 2.32 µM
- TGI (UACC-62 melanoma): 6.89 µM
- GI50 (DU-145 prostate): 3.68 µM
- TGI (DU-145 prostate): > 100 µM
- GI50 (OVCAR-3 ovarian): 3.04 µM
- TGI (OVCAR-3 ovarian): 9.16 µM
- GI50 (HL-60(TB) leukemia): 1.8 µM
- TGI (HL-60(TB) leukemia): 5.66 µM
- GI50 (HS 578T breast): 2.58 µM
- TGI (HS 578T breast): 7.38 µM
- GI50 (HT29 colon): 3.77 µM
- TGI (HT29 colon): > 100 µM
- GI50 (SNB-19 CNS): 3.38 µM
- TGI (SNB-19 CNS): > 100 µM
- GI50 (U251 CNS): 2.31 µM
- TGI (U251 CNS): 5.94 µM
- GI50 (NCI-H226 lung): 2.21 µM
- TGI (NCI-H226 lung): 6.3 µM
- GI50 (IGROV1 ovarian): 4.65 µM
- TGI (IGROV1 ovarian): > 100 µM
- GI50 (T-47D breast): 2.12 µM
- TGI (T-47D breast): 6.04 µM
- GI50 (KM12 colon): 2.78 µM
- TGI (KM12 colon): 8.1 µM
- GI50 (NCI-H23 lung): 2.14 µM
- TGI (NCI-H23 lung): 6.04 µM
- GI50 (786-0 renal): 3.06 µM
- TGI (786-0 renal): 9.11 µM
- GI50 (SNB-75 CNS): 1.49 µM
- TGI (SNB-75 CNS): 3.92 µM
- GI50 (SR leukemia): 2.49 µM
- TGI (SR leukemia): 8.71 µM
- GI50 (SK-MEL-28 melanoma): 3.76 µM
- TGI (SK-MEL-28 melanoma): > 100 µM
- GI50 (PC-3 prostate): 3.09 µM
- TGI (PC-3 prostate): > 100 µM
- GI50 (SW-620 colon): 3.31 µM
- TGI (SW-620 colon): 13.6 µM
- GI50 (CAKI-1 renal): 1.71 µM
- TGI (CAKI-1 renal): 4.83 µM
- GI50 (LOX IMVI melanoma): 3.21 µM
- TGI (LOX IMVI melanoma): 10.9 µM
- GI50 (HCC-2998 colon): 3.12 µM
- TGI (HCC-2998 colon): 26.5 µM
- GI50 (MALME-3M melanoma): 2.98 µM
- TGI (MALME-3M melanoma): 7.93 µM
- GI50 (NCI-H522 lung): 2.71 µM
- TGI (NCI-H522 lung): 8.62 µM
- GI50 (K-562 leukemia): 2.77 µM
- TGI (K-562 leukemia): 11 µM
- GI50 (A549 NSCLC): 3.09 µM
- TGI (A549 NSCLC): 47.4 µM
- GI50 (OVCAR-4 ovarian): 3.16 µM
- TGI (OVCAR-4 ovarian): 27.1 µM
- GI50 (HOP-62 NSCLC): 1.97 µM
- TGI (HOP-62 NSCLC): 4.91 µM
- GI50 (MDA-MB-468 breast): 2.2 µM
- TGI (MDA-MB-468 breast): 5.76 µM
- GI50 (OVCAR-5 ovarian): 6.63 µM
- TGI (OVCAR-5 ovarian): > 100 µM
- GI50 (MDA-MB-435): 2.59 µM
- TGI (MDA-MB-435): 7.58 µM
- GI50 (OVCAR-8 ovarian): 3.17 µM
- TGI (OVCAR-8 ovarian): 32.9 µM
- GI50 (RXF 393 renal): 1.88 µM
- TGI (RXF 393 renal): 5.45 µM
- GI50 (SF-295 CNS): 2.12 µM
- TGI (SF-295 CNS): 4.91 µM
- GI50 (UO-31 renal): 2.44 µM
- TGI (UO-31 renal): 9.57 µM
- GI50 (HCT-116 colon): 2.8 µM
- TGI (HCT-116 colon): 8.81 µM
- GI50 (CCRF-CEM leukemia): 3.31 µM
- TGI (CCRF-CEM leukemia): 17 µM
- GI50 (A498 renal): 2.54 µM
- TGI (A498 renal): 7.14 µM
- GI50 (SK-OV-3 ovarian): 2.04 µM
- TGI (SK-OV-3 ovarian): 5.55 µM
- GI50 (SK-MEL-5 melanoma): 1.72 µM
- TGI (SK-MEL-5 melanoma): 3.29 µM
- GI50 (ACHN renal): 3.06 µM
- TGI (ACHN renal): 11.1 µM
- GI50 (SN12C renal): 2.34 µM
- TGI (SN12C renal): 6.88 µM
- GI50 (TK-10 renal): 3.96 µM
- TGI (TK-10 renal): 11.1 µM
- GI50 (MDA-MB-231 breast): 1.88 µM
- TGI (MDA-MB-231 breast): 4.31 µM
- GI50 (COLO 205 colon): 1.91 µM
- TGI (COLO 205 colon): 4.13 µM
- GI50 (SF-268 CNS): 3.1 µM
- TGI (SF-268 CNS): > 100 µM
- GI50 (NCI-H460 lung): 2.78 µM
- TGI (NCI-H460 lung): 8.42 µM
